≈ marks a conversion by molar mass, not a printed value.
Legend:
efflux pumps of MRSA = test: Fluorescent competition assay of compound 1 versus INF-55 and reserpine; assay type: binding; settings: compound 1 at 5 μM
Experimental: INF-55 and reserpine, NorA EPIs, were used to compete with compound 1 for binding sites on MRSA. Since compound 1 is highly fluorescent, binding could be assessed by measuring the fluorescence at excitation wavelengths of 345 nm, 380 nm, 407 nm, and an emission wavelength of 508 nm. Fluorescent readings were taken every minute for 30 minutes at a lamp energy of 20,000 CW. MRSA cells (about 10^8 CFU/mL) were pelleted at 7500 rpm and resuspended in 1×PBS. The MRSA cells were then pretreated with the appropriate EPI at varying concentrations and incubated for 30 minutes at 37° C. at 150 rpm on a rotary shaker.
INF-55 (FIG. 2) and reserpine (FIG. 3) were added at 1 μM, 10 μM, 50 μM, and 100 μM. After incubation with the appropriate EPI, compound 1 was added at 5 μM and the samples were incubated for 10 minutes. The samples were then placed in a fluorescent plate reader for analysis. The controls used were as follows: 1×PBS, compound 1 (5 μM) in 1×PBS, each respective concentration of the EPI in 1×PBS, compound 1 (5 μM) added to MRSA cells, and each respective EPI added to MRSA cells. The instrument baseline fluorescence drift was corrected by subtracting the fluorescence measured at each time point for the 1×PBS control sample. The error bars represent data from three independent measurements.

[1] = tested on: S. aureus (ATCC No. 29213); test: Light-activated killing, colony counts; assay type: cell-based; settings: for Dark Toxicity: no light; for Light Toxicity: white light 2 minutes
Experimental: (§1) Dose-dependent effects of treating bacteria with compound 1 and irradiation with white light were assessed by treating 10^8 CFU/mL of cells with compound 1, followed by irradiation with white light for 2 minutes. Compound 1 was added at a specific concentration to 1 mL of a 10^8 CFU/mL suspension of the respective bacterial cells, and the cells were incubated at 37° C. for approximately 45 minutes on a rotary shaker at 150 rpm. 0.5 mL of the cell suspension was removed and placed into the wells of a sterile ceramic drop plate, and then the cells were irradiated with white light from a Lumacare™ LC 122A light source for 2 minutes at a distance of approximately 3 cm. The time and distance of the light application delivered about 85 J/cm^2 of 400-700 nm light to the sample. After being irradiated, ten-fold dilutions were made of each cell sample. The dilutions were drip-streaked onto a tryptic soy agar (TSA) plate and incubated at 37° C. for 18-24 hours. Enumeration of bacteria was determined from the dilution, which produced a drip-streak containing approximately 30-300 colonies. After counting the colonies, the CFU/mL was calculated by applying the respective dilution factor and a factor of 100 to account for the 10 μL of sample taken. Appropriate controls were prepared, including cells with no treatment, cells with only compound 1 added, and cells only treated with light.
The error bars in FIG. 10 represent the variations between three replicate determinations.

VRE (ATCC No. 51299) = test: Light-activated killing, colony counts; assay type: cell-based, Enterococcus faecalis; settings: for Dark Toxicity: no light; for Light Toxicity: white light 2 minutes
Experimental: as §1
The error bars in FIG. 11 represent the variations between three replicate determinations.

[2] = tested on: S. mutans (Ward's 85W 2357); test: Light-activated killing, colony counts; assay type: cell-based; settings: for Dark Toxicity: no light; for Light Toxicity: white light 2 minutes
Experimental: as §1
The error bars in FIG. 13 represent the variations between three replicate determinations.

MRSA (ATCC No. BAA-44) = test: Synergy of compound 1 with antibiotics, isobologram; assay type: cell-based, S. aureus; settings: vancomycin, tetracycline, doxycycline, norfloxacin, dicloxicillin, oxacillin, penicillin G, tobramycin; FIGS. 14, 15
Description: The synergy of two compounds with varying relative potencies can be represented using an isobologram. An isobologram plots the normalized effective concentrations of each drug on each axis, where the sum of the two concentrations equals the line of additivity. Outside the line of additivity, when the sum>1, the effect of the two drugs is considered antagonistic; inside of the line of additivity, when the sum<1, the effect of the two drugs is considered superadditive, or when the sum≦0.5, the effect of the two drugs is considered synergistic.
An illustrative example based on a single data point for each antibiotic in combination with compound 1 against MRSA (ATCC No. BAA-44) is shown in FIG. 14. A zoomed-in isobologram for the same data as shown in FIG. 14 is depicted in FIG. 15 specifically for the synergistic area.

A. baumannii = test: Treatment with compound 1 and PMB at fixed concentrations, with and without white light; assay type: cell-based
Description: FIG. 53 is an example of the treatment of A. baumannii with compound 1 and PMB at fixed concentrations with and without irradiation using white light (λ).

E. coli [3] = test: as above; assay type: cell-based
Description: FIG. 54 is an example of the treatment of E. coli with compound 1 and PMB at fixed concentrations with and without irradiation using white light (λ).

E. coli [4] = test: Resensitization to antibiotics (log reduction, TABLE 29); assay type: cell-based; settings: compound 1 μM
[5] = tested on: S. mutans Ward's 85W 2357; test: as above; assay type: cell-based; settings: compound 1 μM; Light (2 min)
HeLa cells = test: Compound 1 in DMSO versus liposomes on HeLa cells with light (MTT); assay type: cell-based; settings: 1 μM; for Compound 1 pre-incubation to max killing: in the dark
Experimental: An effective period of pre-incubation with the drug in the dark was determined to be about 28 hours for compound 1 in DMSO and 60 hours for liposomal delivery of compound 1. The cells were then irradiated with continuous white light for 2 minutes at a distance of 6.5 cm using a LumaCare™ light source. An MTT assay was carried out to evaluate cell viability 48 hours later.

Gram-positive bacteria = test: Bacterial patterning (chessboard mask) with light and compound 1; assay type: cell-based
Experimental: A chessboard mask was then placed on top of the agar plate. […] The agar plate was then inoculated with bacteria and incubated overnight at 37° C.

Clc1ccc(/C=C/c2[nH]c3ccccc3c2/C=C/c2ccc(Cl)cc2)cc1 [Compound 1]
competition with INF-55 for binding (fluorescence) (efflux pumps of MRSA; INF-55 1-100 μM, FIG. 2): able to compete with INF-55 for binding to the efflux pumps of MRSA | competition with reserpine for binding (fluorescence) (efflux pumps of MRSA; reserpine 1-100 μM, FIG. 3): able to compete with reserpine for binding to the efflux pumps of MRSA | Dark Toxicity ([1]; 0.1 μM): 1.63 × 10^8 ± 1.72 × 10^7 CFU/mL | Light Toxicity ([1]; 0.1 μM): 1.20 × 10^5 ± 5.12 × 10^4 CFU/mL | Dark Toxicity ([1]; 0.5 μM): 2.67 × 10^6 ± 2.10 × 10^6 CFU/mL | Light Toxicity ([1]; 0.5 μM): 1.60 × 10^3 ± 1.44 × 10^3 CFU/mL | Dark Toxicity ([1]; 1.0 μM): 1.34 × 10^6 ± 3.04 × 10^5 CFU/mL | Light Toxicity ([1]; 1.0 μM): None detected (<100 CFU/mL) | Dark Toxicity ([1]; 5.1 μM): 7.13 × 10^4 ± 1.80 × 10^4 CFU/mL | Light Toxicity ([1]; 5.1 μM): None detected (<100 CFU/mL) | Dark Toxicity (VRE (ATCC No. 51299); 0.1 μM): 6.50 × 10^8 ± 5.40 × 10^8 CFU/mL | Light Toxicity (VRE (ATCC No. 51299); 0.1 μM): 7.00 × 10^2 ± 8.19 × 10^2 CFU/mL | Dark Toxicity (VRE (ATCC No. 51299); 0.5 μM): 6.50 × 10^8 ± 1.32 × 10^8 CFU/mL | Light Toxicity (VRE (ATCC No. 51299); 0.5 μM): 2.67 × 10^2 ± 4.62 × 10^2 CFU/mL | Dark Toxicity (VRE (ATCC No. 51299); 1.0 μM): 6.20 × 10^8 ± 2.62 × 10^8 CFU/mL | Light Toxicity (VRE (ATCC No. 51299); 1.0 μM): None detected (<100 CFU/mL) | Dark Toxicity (VRE (ATCC No. 51299); 5.0 μM): 4.55 × 10^5 ± 8.87 × 10^5 CFU/mL | Light Toxicity (VRE (ATCC No. 51299); 5.0 μM): None detected (<100 CFU/mL) | Dark Toxicity ([2]; 0.1 μM): 2.6 × 10^8 ± 5.57 × 10^7 CFU/mL | Light Toxicity ([2]; 0.1 μM): 2.35 × 10^5 ± 3.50 × 10^5 CFU/mL | Dark Toxicity ([2]; 0.5 μM): 1.44 × 10^8 ± 4.46 × 10^7 CFU/mL | Light Toxicity ([2]; 0.5 μM): 2.33 × 10^3 ± 1.54 × 10^3 CFU/mL | Dark Toxicity ([2]; 1.0 μM): 2.1 × 10^5 ± 1.13 × 10^5 CFU/mL | Light Toxicity ([2]; 1.0 μM): None Detected (<100 CFU/mL) | Dark Toxicity ([2]; 5.0 μM): 5.5 × 10^4 ± 2.48 × 10^4 CFU/mL | Light Toxicity ([2]; 5.0 μM): None Detected (<100 CFU/mL) | synergy with antibiotics (isobologram) (MRSA (ATCC No. BAA-44)): able to synergize with every tested antibiotic | cell killing with compound 1, PMB and white light (A. baumannii; FIG. 53): PMB was more efficacious in cell killing when co-administered with compound 1 and light | killing by combination of compound 1 and PMB (CFU) (A. baumannii; compared to either agent alone, FIG. 16): effective at killing A. baumannii | cell killing with compound 1, PMB and white light (E. coli [3]; FIG. 54): PMB was more efficacious in cell killing when co-administered with compound 1 and light | killing by combination of compound 1 and PMB (CFU) (E. coli [3]; compared to either agent alone, FIG. 17): effective at killing E. coli | Log Reduction (E. coli [4]; PMB (0.1 μg/mL)): 4 | Log Reduction (E. coli [4]; PMB (0.1 μg/mL) + Light (2 min)): 7 | Log Reduction [5]: 5-6 | Compound 1 (no light), killing (HeLa cells): 6% killing | Compound 1 + light, killing (HeLa cells; continuous white light 2 minutes, MTT 48 hours later): 77% killing | Compound 1 pre-incubation to max killing (HeLa cells): 28 h | Compound 1 pre-incubation to max killing (HeLa cells; listed as compound 1): about 28 hours | MIC (Gram-positive bacteria): 400 µM (≈ 156 µg/mL) | bacterial growth on irradiated agar plate (Gram-positive bacteria; agar with 20 μM compound 1, white light through chessboard mask, FIG. 5): inhibition of bacterial growth in the illuminated parts of the agar plate
